Reference: patent publication US8426429B2, “2-amino-quinazoline derivatives useful as inhibitors of β-secretase (BACE)” (Jansssen Pharmaceutica N.V., priority 2004, dated 2013)

Target: T1, β-secretase (BACE) (Homo sapiens, UniProt P56817)
T1 construct: purchased Panvera
Experiment: BACE FS1 % Inhibition Assay
Format: biochemical
Procedure, shortened: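 Percent inhibition per compound concentration was referenced to vehicle-treated enzyme and no-enzyme wells. Enzyme at a 4 μg/mL working stock plus compound was mixed for 20 min at room temperature before the FS1 substrate (300 μg/mL working stock) was added for a 1 h room-temperature reaction.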

T1 sequence (P56817 46-501): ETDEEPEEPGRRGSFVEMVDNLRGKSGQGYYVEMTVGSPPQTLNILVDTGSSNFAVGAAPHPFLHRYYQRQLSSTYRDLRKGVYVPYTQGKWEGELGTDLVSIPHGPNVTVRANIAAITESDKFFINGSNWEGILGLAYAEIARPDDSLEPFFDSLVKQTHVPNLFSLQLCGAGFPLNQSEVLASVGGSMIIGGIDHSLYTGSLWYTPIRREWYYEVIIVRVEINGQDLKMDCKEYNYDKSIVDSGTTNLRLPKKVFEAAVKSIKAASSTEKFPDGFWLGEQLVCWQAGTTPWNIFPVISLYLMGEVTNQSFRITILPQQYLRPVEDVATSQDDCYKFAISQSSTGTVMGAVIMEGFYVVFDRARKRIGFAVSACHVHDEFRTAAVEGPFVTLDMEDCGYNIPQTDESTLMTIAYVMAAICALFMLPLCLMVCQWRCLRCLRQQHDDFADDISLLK

| SMILES | % Inhibition (FS) (0.3 μM test compound) [%] | % Inhibition (FS) (1 μM test compound) [%] | % Inhibition (FS) (3 μM test compound) [%] |
| --- | --- | --- | --- |
| CN(C(=O)c1cccc(CN2Cc3cc(Nc4ccc(C5CCCCC5)cc4)ccc3N=C2N)c1)C1CCCCC1 [Compound 437] | <30 | <30 | 38 |
| CN(C)c1ccc(Nc2ccc3c(c2)CN(Cc2cccc(C(=O)N(C)C4CCCCC4)c2)C(N)=N3)cc1 [Compound 438] | <30 | <30 | <30 |
| CN(C(=O)c1cccc(CN2Cc3cc(Nc4ccc(N5CCOCC5)cc4)ccc3N=C2N)c1)C1CCCCC1 [Compound 439] | <30 | <30 | <30 |
| CCOc1cccc(Nc2ccc3c(c2)CN(Cc2cccc(C(=O)N(C)C4CCCCC4)c2)C(N)=N3)c1 [Compound 440] | <30 | 35 | 72 |
| CN(C(=O)c1cccc(CN2Cc3cc(Nc4ccc5c(c4)OCO5)ccc3N=C2N)c1)C1CCCCC1 [Compound 441] | <30 | 29 | 48 |
| CSc1ccc(Nc2ccc3c(c2)CN(Cc2cccc(C(=O)N(C)C4CCCCC4)c2)C(N)=N3)cc1 [Compound 442] | <30 | 58 | 101 |
| NC1=Nc2ccc(Oc3ccccc3)cc2CN1Cc1cccc(C(=O)N2CCCCC2)c1 [Compound 443] | <30 | 39 | 67 |
| CC(C)[C@@H](CCC(=O)N(C)C1CCCCC1)N1Cc2cc(Oc3ccccc3)ccc2N=C1N [Compound 444] | <30 | <30 | 30 |
| NC1=Nc2ccc(Oc3ccccc3)cc2CN1Cc1cccc(C(=O)NC2CCCCC2)c1 [Compound 451] | <30 | <30 | <30 |
| NC1=Nc2ccc(Oc3ccccc3)cc2CN1C(CCCC(=O)N1CCCCC1)CCC(=O)N1CCCCC1 (stereo not drawn) [Compound 452] | <30 | 42 | 78 |
| CN(C(=O)c1ccccc1CN1Cc2cc(Oc3ccccc3)ccc2N=C1N)C1CCCCC1 [Compound 463] | <30 | <30 | <30 |
| COc1cccc(OC)c1Oc1ccc2c(c1)CN(CCC(=O)NC1C3CC4CC(C3)CC1C4)C(N)=N2 (stereo not drawn) [Compound 465] | <30 | <30 | <30 |
| CC(C)c1ccccc1Oc1ccc2c(c1)CN(CCC(=O)NC1C3CC4CC(C3)CC1C4)C(N)=N2 (stereo not drawn) [Compound 466] | <30 | <30 | 53 |
| COc1ccc(C)cc1Oc1ccc2c(c1)CN(Cc1cccc(C(=O)N(C)C3CCCCC3)c1)C(N)=N2 [Compound 467] | <30 | <30 | <30 |
| COc1cccc(C)c1Oc1ccc2c(c1)CN(Cc1cccc(C(=O)N(C)C3CCCCC3)c1)C(N)=N2 [Compound 468] | <30 | <30 | <30 |
| COc1ccc(-c2nc3ccccc3s2)c(Oc2ccc3c(c2)CN(Cc2cccc(C(=O)N(C)C4CCCCC4)c2)C(N)=N3)c1 [Compound 469] | <30 | <30 | <30 |
| CN(C(=O)c1cccc(CN2Cc3cc(Oc4ccccc4-c4nc5ccccc5s4)ccc3N=C2N)c1)C1CCCCC1 [Compound 470] | <30 | <30 | 31 |
| CN(C(=O)c1cccc(CN2Cc3cc(Oc4ccccc4-n4cccc4)ccc3N=C2N)c1)C1CCCCC1 [Compound 471] | <30 | <30 | 38 |
| CN(C(=O)c1cccc(CN2Cc3cc(Oc4ccccc4S(C)(=O)=O)ccc3N=C2N)c1)C1CCCCC1 [Compound 472] | <30 | <30 | <30 |
| CN(C(=O)c1cccc(CN2Cc3cc(Oc4cccc(-c5ccc6ccccc6n5)c4)ccc3N=C2N)c1)C1CCCCC1 [Compound 473] | <30 | <30 | <30 |
| CSc1ccccc1Oc1ccc2c(c1)CN(Cc1cccc(C(=O)N(C)C3CCCCC3)c1)C(N)=N2 [Compound 474] | <30 | <30 | <30 |
| Cc1cccc(C)c1Oc1ccc2c(c1)CN(Cc1cccc(C(=O)N(C)C3CCCCC3)c1)C(N)=N2 [Compound 475] | <30 | <30 | <30 |
| COc1cccc(OC)c1Oc1ccc2c(c1)CN(Cc1cccc(C(=O)N(C)C3CCCCC3)c1)C(N)=N2 [Compound 477] | <30 | <30 | <30 |
| CC(C)Oc1ccccc1Oc1ccc2c(c1)CN(Cc1cccc(C(=O)N(C)C3CCCCC3)c1)C(N)=N2 [Compound 478] | <30 | <30 | 46 |
| CN(C)c1cccc(Oc2ccc3c(c2)CN(Cc2cccc(C(=O)N(C)C4CCCCC4)c2)C(N)=N3)c1 [Compound 479] | <30 | <30 | 81 |
| C=CCc1cccc(C)c1Oc1ccc2c(c1)CN(Cc1cccc(C(=O)N(C)C3CCCCC3)c1)C(N)=N2 [Compound 480] | <30 | <30 | 38 |
| C=CCc1cccc(OC)c1Oc1ccc2c(c1)CN(Cc1cccc(C(=O)N(C)C3CCCCC3)c1)C(N)=N2 [Compound 481] | <30 | <30 | 32 |
| CCCc1cccc(C)c1Oc1ccc2c(c1)CN(Cc1cccc(C(=O)N(C)C3CCCCC3)c1)C(N)=N2 [Compound 482] | <30 | <30 | 43 |
